The values that follow come from PMC7150891, “Mertansine Inhibits mRNA Expression and Enzyme Activities of Cytochrome P450s and Uridine 5′-Diphospho-Glucuronosyltransferases in Human Hepatocytes and Liver Microsomes” (Pharmaceutics, 2020).

SMILES strings stand for the structures. Entries after “also recorded” stand apart in the source; their conditions may differ.

Data set [1] deals with T1, UGT1A6 (Homo sapiens, UniProt P19224).
T1 construct: ultrapooled human liver microsomes (0.2 mg/mL); from tissue; host or cells: human liver microsomes (ultrapooled)
Briefly: Inhibition of UGT1A6-catalyzed N-acetylserotonin β-D-glucuronidation in ultrapooled human liver microsomes. The class given is in vitro ADME. The procedure: (§1) The inhibitory potential of mertansine on UGT1A1, UGT1A3, UGT1A4, UGT1A6, UGT1A9, and UGT2B7 activities was evaluated using liquid chromatography–tandem mass spectrometry (LC-MS/MS) with a cocktail of UGT substrates and ultrapooled human liver microsomes. Each incubation mixture was prepared to a final volume of 100 μL as follows: ultrapooled human liver microsomes (0.2 mg/mL), 5 mM UDPGA, 10 mM magnesium chloride, alamethicin (25 μg/mL), 50 mM Tris buffer (pH 7.4), various concentrations of mertansine in methanol (final concentrations of 0.01–50 μM), and the cocktail sets of UGT enzyme-specific substrates. Two cocktail sets were used: set A contained 0.5 μM SN-38 for UGT1A1, 2 μM chenodeoxycholic acid for UGT1A3, and 0.5 μM trifluoperazine for UGT1A4; and set B contained 1 μM N-acetylserotonin for UGT1A6, 0.2 μM mycophenolic acid for UGT1A9, and 1 μM naloxone for UGT2B7. The reactions were initiated by adding UDPGA and incubated in a shaking water bath for 60 min at 37 °C. Reactions were terminated by adding 50 μL of ice-cold acetonitrile containing internal standards (IS, propofol glucuronide for set A and meloxicam for set B). Incubation mixtures were centrifuged at 13,000 g for 8 min at 4 °C. Next, 50 μL of each supernatant of sets A and B was mixed, and aliquots (5 μL) were analyzed using LC-MS/MS. […]
In general terms: Liver microsomes are a subcellular fraction often used to study metabolism.

Data set [2] concerns the target T2, UGT1A9 (Homo sapiens, UniProt O60656).
T2 construct: ultrapooled human liver microsomes (0.2 mg/mL); from tissue; host or cells: human liver microsomes (ultrapooled)
Briefly: Inhibition of UGT1A9-catalyzed mycophenolic acid β-D-glucuronidation in ultrapooled human liver microsomes. The class given is in vitro ADME. On the procedure: as §1

In data set [3] the target is T3, UGT2B7 (Homo sapiens, UniProt P16662).
T3 construct: ultrapooled human liver microsomes (0.2 mg/mL); from tissue; host or cells: human liver microsomes (ultrapooled)
Briefly: Inhibition of UGT2B7-catalyzed naloxone 3-β-D-glucuronidation in ultrapooled human liver microsomes. The class given is in vitro ADME. On the procedure: as §1

In data set [4] the test system is CYP2B6 mRNA (suppression of expression). As to the kind of experiment: CYP2B6 mRNA level in human hepatocytes after 48 h treatment (RT-PCR). The class given is cell-based. The note with it: 1.25–2500 nM. An excerpt:
(§2) 12.5 (Systat Software, Inc.; San Jose, CA, USA). […] 1.1 (Systat Software, Inc.).

Data set [5] has as its system CYP2B6 mRNA. The data set is described as above. Type of data set: cell-based. The conditions noted are these: Mean ± SD of three human hepatocyte lots, 48 h, 1.25–2500 nM, read-out: IC50, suppression of CYP2B6 mRNA expression.
Description: as §2

In data set [6] the test system is UGT1A1 mRNA. As to the kind of experiment: UGT1A1 mRNA level in human hepatocytes after 48 h treatment (RT-PCR). The conditions noted are these: human, IC50, suppression of UGT1A1 mRNA expression, 1.25–2500 nM.
In data set [7] the test system is CYP3A4 mRNA. Briefly: in vitro. The note with it: human, hepatocytes, IC50, suppression of CYP3A4 mRNA expression, 1.25–2500 nM.
Data set [8] relates to UGT1A9 mRNA. As to the kind of experiment: UGT1A9 mRNA level in human hepatocytes after 48 h treatment (RT-PCR). The note with it: plated cryopreserved human hepatocytes, IC50, suppression of UGT1A9 mRNA expression, 1.25–2500 nM.
Where [9] appears, read: human liver microsomes, mertansine at 50 µM.
The mark [10] stands for this setting: human hepatocytes Lot 319, 48 h.
Where [11] appears, read: human hepatocytes Lot 321, 48 h.
Where [12] appears, read: human hepatocytes Lot 361, 48 h.
The mark [13] stands for this setting: Mean ± SD of three human hepatocyte lots, 48 h.

T3 sequence (P16662 24-529): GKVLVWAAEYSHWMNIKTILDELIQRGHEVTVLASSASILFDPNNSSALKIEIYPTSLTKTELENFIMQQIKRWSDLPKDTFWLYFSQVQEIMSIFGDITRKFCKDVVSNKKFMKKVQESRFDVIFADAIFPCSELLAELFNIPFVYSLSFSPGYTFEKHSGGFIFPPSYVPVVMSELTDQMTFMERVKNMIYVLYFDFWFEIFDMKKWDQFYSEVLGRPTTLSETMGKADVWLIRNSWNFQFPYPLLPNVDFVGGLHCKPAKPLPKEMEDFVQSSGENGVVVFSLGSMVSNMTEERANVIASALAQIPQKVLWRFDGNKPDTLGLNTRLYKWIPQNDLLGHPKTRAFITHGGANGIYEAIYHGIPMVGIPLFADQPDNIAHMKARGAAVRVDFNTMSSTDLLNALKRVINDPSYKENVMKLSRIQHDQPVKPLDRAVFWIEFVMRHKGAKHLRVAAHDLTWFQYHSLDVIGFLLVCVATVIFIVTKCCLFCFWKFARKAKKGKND
T2 sequence (O60656 26-530): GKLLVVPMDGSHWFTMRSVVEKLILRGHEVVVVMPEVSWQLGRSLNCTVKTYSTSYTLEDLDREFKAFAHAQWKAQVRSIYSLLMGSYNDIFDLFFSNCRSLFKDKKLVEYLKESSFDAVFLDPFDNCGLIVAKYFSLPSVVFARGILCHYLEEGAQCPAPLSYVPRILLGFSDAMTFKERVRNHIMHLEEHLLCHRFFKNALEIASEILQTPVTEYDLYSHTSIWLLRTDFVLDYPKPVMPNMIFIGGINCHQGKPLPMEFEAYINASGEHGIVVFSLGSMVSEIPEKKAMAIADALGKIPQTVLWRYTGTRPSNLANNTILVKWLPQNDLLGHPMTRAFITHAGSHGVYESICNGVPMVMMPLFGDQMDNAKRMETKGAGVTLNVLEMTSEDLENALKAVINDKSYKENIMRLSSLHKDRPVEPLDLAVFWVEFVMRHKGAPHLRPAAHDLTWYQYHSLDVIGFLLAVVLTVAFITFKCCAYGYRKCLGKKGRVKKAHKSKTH
T1 sequence (P19224 27-532): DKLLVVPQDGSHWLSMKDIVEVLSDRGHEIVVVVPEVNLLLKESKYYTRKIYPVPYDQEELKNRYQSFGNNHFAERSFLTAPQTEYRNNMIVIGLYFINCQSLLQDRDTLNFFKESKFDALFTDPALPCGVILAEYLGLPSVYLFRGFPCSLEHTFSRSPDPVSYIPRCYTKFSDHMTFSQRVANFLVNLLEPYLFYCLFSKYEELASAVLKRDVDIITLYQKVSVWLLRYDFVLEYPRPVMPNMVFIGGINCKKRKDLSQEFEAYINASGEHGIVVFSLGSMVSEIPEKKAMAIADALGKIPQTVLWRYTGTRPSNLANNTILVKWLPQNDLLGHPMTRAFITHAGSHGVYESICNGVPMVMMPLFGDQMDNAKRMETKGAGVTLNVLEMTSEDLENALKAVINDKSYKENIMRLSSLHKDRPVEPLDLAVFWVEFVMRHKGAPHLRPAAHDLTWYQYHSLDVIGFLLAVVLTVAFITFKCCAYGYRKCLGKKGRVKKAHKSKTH

On to `COc1cc2cc(c1Cl)N(C)C(=O)CC(OC(=O)C(C)N(C)C(=O)CCS)C1(C)OC1C(C)C1CC(O)(NC(=O)O1)C(OC)C=CC=C(C)C2` (stereo not shown) [mertansine, Mertansine], for which the “Inhibition of UGT1A6 enzyme activity” value in data set [1] (setting [9]) is given as “no inhibition; also recorded: negligibly inhibited”. Besides, in data set [1] (ultrapooled human liver microsomes, 1 µM N-acetylserotonin (cocktail)), the “IC50, N-acetylserotonin β-D-glucuronidation (UGT1A6)” value is given as “No inhibition”. Besides, the “Inhibition of UGT1A9 enzyme activity” value in data set [2] (setting [9]) is “no inhibition; also recorded: negligibly inhibited”. In data set [2] (ultrapooled human liver microsomes, 0.2 µM mycophenolic acid (cocktail)), the “IC50, mycophenolic acid β-D-glucuronidation (UGT1A9)” value is recorded as “No inhibition”. Further, in data set [3] (setting [9]), the “Inhibition of UGT2B7 enzyme activity” value was “no inhibition; also recorded: negligibly inhibited”. Further, the “IC50, naloxone 3-β-D-glucuronidation (UGT2B7)” value in data set [3] (ultrapooled human liver microsomes, 1 µM naloxone (cocktail)) is given as “No inhibition”. Also, the IC50 at 48 h in data set [4] (setting [10]) came out at 25 nM; in data set [4] (setting [11]), 57.8 nM; in data set [4] (setting [12]), 27.6 nM; in data set [5], 36.8 ± 18.3 nM; in data set [6] (setting [13]), 857 ± 782 nM; in data set [6] (setting [10]), 784 nM. Also, the half-maximal inhibitory concentration (IC50) at 48 h in data set [6] (setting [11]) was 113 nM; in data set [6] (setting [12]), 1670 nM; in data set [8] (setting [13]) it was 54.1 ± 29.1 nM; in data set [8] (setting [10]), 86.9 nM; in data set [8] (setting [11]), 31.4 nM; in data set [8] (setting [12]), 44.1 nM. The IC50 in data set [7] (setting [13]) was determined as 161 ± 167 nM; in data set [7] (setting [10]) it was 344 nM; in data set [7] (setting [11]) it was 120 nM; in data set [7] (setting [12]), 16.8 nM.

In general, IC50 refers to the concentration that inhibits the measured activity by half.
